Assays:
[1] = system: cancer cells; test: Cell death/apoptosis (PI Sub-G1 flow cytometry, MTT, Annexin V); format: cell-based; details: 48 h
Description: (§1) Ethidium bromide was purchased from Sigma (E7637) and treated as follows. Cancer and normal cells of various tissue origins with approximately 40% growth abundance were treated with 0.1, 0.4, and 1 μg/ml for 48 h, followed by PI staining and cycle detection by flow cytometry, statistical analysis of genomic DNA break (Sub-G1) cells, or cell viability by MTT method.
(§2) In support of this, cancer cells and normal cells from various tissues with growth abundance of about 40% were treated with 1, 2, and 5 μM for 48 h, respectively, and then observed the growth of the cells by light microscopy, followed by PI staining, detection and statistical analysis of genomic DNA break (Sub-G1) cells by flow cytometry (FIG. 3), or cell apoptosis detection by Annexin V staining method (FIG. 4).

[2] = system: normal cells; test: as above; format: cell-based; details: 48 h
Description: as §1, §2

`CC[n+]1c(-c2ccccc2)c2cc(N)ccc2c2ccc(N)cc21` [ethidium bromide, Ethidium bromide] was tested, and the “induction of cell death” value ([1]; 0.1, 0.4, 1 μg/ml, SK-Hep1, BEL-7404, B16) was “can selectively induce the death of a wide range of cancer cells”, the “induction of cell death” value ([1]; 1, 2, 5 μM, SK-Hep1, 7404, AGS, RKO) was “can selectively induce the death of cancer cells in many different tissues” and the “growth inhibition / apoptosis” value ([2]; 0.1, 0.4, 1 μg/ml, Chang, LO2, 3T3-L1) was “inhibited growth at most and cannot induce apoptosis”. The “growth inhibition / apoptosis” value ([2]; 1, 2, 5 μM, LO2, chang, GES1) was “only inhibited growth and cannot induce apoptosis”.
